Measured values from patent US9150526B2, “Biaryl-propionic acid derivatives and their use as pharmaceuticals” (SANOFI, priority 2013, dated 2015).

Test system: Recombinant human cathepsin A
Assay: Cathepsin A inhibitory activity (Bodipy FL-bradykinin substrate, microfluidic capillary electrophoresis)
Format: biochemical
Details: read-out: CATH A IC50

In the case of `COc1ccc(C(C)(C)C#N)cc1-c1cc(F)cc(C(CC(=O)O)c2nnc(C)o2)c1` (centres unmarked) [compound 222], the IC50 is reported as 4 nM.

Compound `O=C(O)CC(c1cc(F)cc(-c2ccccc2OC(F)(F)F)c1)c1ncco1` (centres unmarked) [compound 130] has an IC50 of 466 nM.

Compound `COc1ccc(F)c(F)c1-c1cc(Cl)cc(C(CC(=O)O)c2ncc(C)s2)c1` (centres unmarked) [compound 78] has an IC50 of 37 nM.

`COc1ccc(C(C)C)cc1-c1cccc(C(CC(=O)O)c2nnc(C)o2)c1` (centres unmarked) [compound 64] was tested, and the IC50 was 49 nM.

Work on `COc1ccc(F)cc1-c1cccc(C(CC(=O)O)c2nnc(C)o2)c1` (centres unmarked) [compound 139] yielded an IC50 of 60 nM.

Work on `COc1cccc(-c2cccc(C(CC(=O)O)c3nccs3)c2)c1OC` (centres unmarked) [compound 41] yielded an IC50 of 950 nM.

Work on `COc1ccc(C(C)C)cc1-c1cc(Cl)cc(C(CC(=O)O)c2nnc(C)o2)c1` (centres unmarked) [compound 153] yielded an IC50 of 25 nM.

Compound `COc1ccccc1-c1cccc(C(CC(=O)O)c2nccs2)c1` (centres unmarked) [compound 17] has an IC50 of 154 nM.

Work on `COc1cccc(F)c1-c1cc(Cl)cc(C(CC(=O)O)c2ncc(C)s2)c1` (centres unmarked) [compound 71] yielded an IC50 of 16 nM.

`COc1ccc(F)cc1-c1cncc(C(CC(=O)O)c2nnc(C)o2)c1` (centres unmarked) [compound 192] gave an IC50 of 7070 nM.

Compound `COc1ccc(S(C)(=O)=O)cc1-c1cccc(C(CC(=O)O)c2nnc(C)o2)c1` (centres unmarked) [compound 149] has an IC50 of 265 nM.

Work on `COc1ccc(C(C)C)cc1-c1cc(F)cc(C(CC(=O)O)c2ncc(C)s2)c1` (centres unmarked) [compound 119] yielded an IC50 of 195 nM.

For `COc1c(C)cccc1-c1cc(F)cc(C(CC(=O)O)c2ncc(C)s2)c1` (centres unmarked) [compound 128], the IC50 was 410 nM.

In the case of `CCOc1ccc(C)cc1-c1cc(F)cc(C(CC(=O)O)c2ncco2)c1` (centres unmarked) [compound 117], the IC50 is reported as 155 nM.
